PubChem BioAssay (NCI)
“And” between values parts separate entries of the source, which are not always exact repeats. Equal entries are not always repeated.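 These data come from cells grown in 96-well plates and exposed to compound for 48 hours at five concentrations. Abbreviation: GI50, concentration required for 50% inhibition of growth. TGI is the concentration that stops growth completely.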

test system: MDA-MB-468 breast; experiment: DTP human tumour cell line panel, 48 h

**Q.** For `CC(=O)c1c[nH]c2ccc(-c3ccnc(Nc4ccc(NC(=O)C5CCCC5)c(CN5CCOCC5)c4)n3)cc12`, which GI50 is on record?
**A.** The GI50 was 21.9 nM.

**Q.** And the TGI?
**A.** The TGI was 77.4 nM.

**Q.** With `COC(=O)CCC(=O)NC1=C(Nc2ccccc2)C(=O)c2ccccc2C1=O` as the compound, how does the GI50 read?
**A.** The GI50 was 3040 nM.

**Q.** What about the TGI of the same compound?
**A.** Its TGI is 10500 nM.

**Q.** What does the source list for `Nc1c(C(=O)c2cccc(C(O)CO)c2)cnn1-c1ccc(F)cc1` (stereo unspecified)?
**A.** GI50: > 25000 nM; TGI: > 25000 nM

**Q.** For `CC(C)[P+](c1ccccc1)(c1ccccc1)c1ccccc1`, which GI50 is on record?
**A.** The GI50 was 1120 nM.

**Q.** And the TGI?
**A.** The TGI was 10700 nM.

**Q.** Which results are given for `COc1ccc2nc(C)cc(Sc3nc4ccccc4s3)c2c1`?
**A.** GI50: 2200 nM; TGI: 11400 nM

**Q.** What does the source list for `O=C1OCC2=C1C(c1cccc(C(F)(F)F)c1)c1cc3c(cc1N2CCO)OCCO3` (stereo unspecified)?
**A.** GI50: 1410 nM; TGI: > 33300 nM

**Q.** `CC1=C(CO)C(=O)O[C@@H]([C@@H](C)[C@H]2CC[C@H]3[C@@H]4C[C@H]5O[C@]56[C@@H](O)C=CC(=O)[C@]6(C)[C@H]4CC[C@]23C)C1` was tested. Which GI50 did it give?
**A.** The GI50 was 278 nM.

**Q.** What about the TGI of the same compound?
**A.** Its TGI is 1210 nM.

**Q.** Which GI50 does the source give for `Cc1nn(C)c2ncnc(N/N=C/c3cccc(O)c3O)c12` here?
**A.** The GI50 was 2170 nM.

**Q.** What about the TGI of the same compound?
**A.** Its TGI is 6530 nM.

**Q.** With `CN1CCN(Cc2ccc(NC(=O)c3[nH]ncc3Nc3ncnc4[nH]ccc34)cc2)CC1` as the compound, how does the GI50 read?
**A.** Its GI50 is 247 nM.

**Q.** And the TGI?
**A.** The TGI was 562 nM.

**Q.** For `Cc1cc(=O)[nH]c(N/N=C/c2ccccc2O)n1`, which GI50 is on record?
**A.** Its GI50 is 3030 nM.

**Q.** What about the TGI of the same compound?
**A.** The TGI was 46900 nM.

**Q.** With `COc1ccc(C2NN=C3c4ccccc4CCC32)cc1` (stereo unspecified) as the compound, how does the TGI read?
**A.** The TGI was 41.6 nM.

**Q.** With `COC1=C(OC)C(=O)C(C/C=C(\C)CC/C=C(\C)CC/C=C(\C)CC/C=C(\C)CC/C=C(\C)CC/C=C(\C)CC/C=C(\C)CC/C=C(\C)CC/C=C(\C)CCC=C(C)C)=C(C)C1=O` as the compound, how does the GI50 read?
**A.** The GI50 was over 100000 nM.

**Q.** What about the TGI of the same compound?
**A.** The TGI was over 100000 nM.

**Q.** For `CN1CCN(Cc2ccc(NC(=O)c3cncc(C#Cc4cnc5ccc(NC6CCOCC6)nn45)c3)cc2C(F)(F)F)CC1`, which GI50 is on record?
**A.** The GI50 was 33.8 nM and 19.6 nM.

**Q.** And the TGI?
**A.** Its TGI is 222 nM and 67.2 nM.

**Q.** What does the source list for `COc1cc(F)c(F)cc1C(=O)c1cnc(NC2CCN(S(C)(=O)=O)CC2)nc1N`?
**A.** GI50: 3650 nM; TGI: 10800 nM

**Q.** `O=C(O)COc1ccc(OCC(=O)O)cc1` was tested. Which GI50 did it give?
**A.** The GI50 was 326 nM.

**Q.** What about the TGI of the same compound?
**A.** Its TGI is 2090 nM.

**Q.** What does the source list for `O=C1C(N2CCN(CCOCCO)CC2)=C(Cl)C(=O)c2ncccc21`?
**A.** GI50: 19300 nM; TGI: 39300 nM

**Q.** How did the GI50 turn out when `COc1cc2nc(N3CCC[C@H](NC4=CC(=O)c5ccccc5C4=O)C3)nc(N)c2cc1OC` was run?
**A.** The GI50 was 1790 nM.

**Q.** What about the TGI of the same compound?
**A.** Its TGI is 3530 nM.

**Q.** `CCN1CCN(c2cc(C(=O)Nc3cccc(Nc4ccc5c(OC)cccc5n4)c3)cc(C(F)(F)F)c2)CC1` was tested. Which GI50 did it give?
**A.** Its GI50 is 749 nM.

**Q.** And the TGI?
**A.** The TGI was 4050 nM.

**Q.** What does the source list for `CC(C)C[C@H](NC(=O)Cn1cccc(CNC(=O)c2ccccc2)c1=O)B(O)O`?
**A.** GI50: 139 nM; TGI: 716 nM

**Q.** For `O=C1NC(=O)C(c2cccc(Cl)c2)=C1Nc1ccc(Cl)c(C(=O)O)c1`, which GI50 is on record?
**A.** The GI50 was over 25000 nM.

**Q.** And the TGI?
**A.** Its TGI is over 25000 nM.

**Q.** `NC1=NC(SCc2ccccc2CCl)c2ncn(Cc3ccccc3CCl)c2N1` (stereo unspecified) was tested. Which GI50 did it give?
**A.** The GI50 was 1710 nM.

**Q.** What about the TGI of the same compound?
**A.** The TGI was 3720 nM.

**Q.** Which GI50 does the source give for `O=c1cc(-c2ccccc2)[nH]c2c1CCCC2` here?
**A.** Its GI50 is 1570 nM.

**Q.** What about the TGI of the same compound?
**A.** Its TGI is 4990 nM.

**Q.** For `CN(C)CCN1C(=O)c2cccc3c(/C=C/CN4C(=O)c5cccc6cccc(c56)C4=O)ccc(c23)C1=O`, which GI50 is on record?
**A.** Its GI50 is 14000 nM.

**Q.** What about the TGI of the same compound?
**A.** The TGI was 34300 nM.

**Q.** For `CN1CCN(C(=O)c2ccc(NC(=O)Nc3ccc(-c4nc(N5CCOCC5)c5cccn5n4)cc3)cc2)CC1`, which GI50 is on record?
**A.** The GI50 was 21 nM.

**Q.** What about the TGI of the same compound?
**A.** Its TGI is 77 nM.

**Q.** How did the GI50 turn out when `O=C(Nc1ccc(-n2cc(-c3ccncc3)c(-c3ccc(O)c(Cl)c3)n2)cc1)c1ccc(Cl)c(C(F)(F)F)c1` was run?
**A.** The GI50 was 2590 nM.

**Q.** What about the TGI of the same compound?
**A.** The TGI was 48400 nM.

**Q.** For `CCN(CC)CCCNCc1cc(-c2ccccc2)nc2cc(Cl)ccc12`, which GI50 is on record?
**A.** The GI50 was 1930 nM.

**Q.** What about the TGI of the same compound?
**A.** Its TGI is 3920 nM.

**Q.** Which results are given for `Nc1nc(Cl)nc2c1ncn2C1OC(CO)C(O)C1F` (stereo unspecified)?
**A.** GI50: 285 nM; TGI: 891 nM

**Q.** What does the source list for `O=C1NC(=O)C(=Cc2cn(Cc3ccccc3)c3ccccc23)C(=O)N1`?
**A.** GI50: 142 nM; TGI: 390 nM

**Q.** `Cc1c(Nc2nccc3cc(CN4CC[C@@H](O)C4)cnc23)cccc1-c1cccc(-c2nc3cc(CN4CC[C@@H](C(=O)O)C4)cc(C#N)c3o2)c1C` was tested. Which GI50 did it give?
**A.** The GI50 was 11200 nM.

**Q.** What about the TGI of the same compound?
**A.** Its TGI is 35200 nM.

**Q.** How did the GI50 turn out when `COc1ccc(Nc2ncnc3ccc(-c4cncc(NS(C)(=O)=O)c4)cc23)cc1Cl` was run?
**A.** The GI50 was 785 nM.

**Q.** What about the TGI of the same compound?
**A.** The TGI was 3100 nM.

**Q.** For `CN1CCN(CCCOc2ccc3nc(Nc4ccc(F)c(F)c4)ccc3c2)CC1`, which GI50 is on record?
**A.** Its GI50 is 1370 nM.

**Q.** And the TGI?
**A.** The TGI was 4360 nM.
